Measured values from patent US20050187181A1 (University of Maryland, priority 2004, published 2005).
“Also recorded” adds a separate entry of the source. Read-outs that look alike come from different tables or passages of the source.

Tests used:
[1] = system: rats in severe hemorrhagic shock; test: Rat shock model for adenosine experiments (0.5 mM adenosine resuscitation); assay type: in vivo
Experimental: It was hypothesized that stimulation of Na/K ATPase with adenosine may reverse, alleviate or attenuate the effects of an endogenous inhibitor that appears during hemorrhagic shock. […] Blood samples (0.5 ml) were taken before hemorrhage, before resuscitation and 1 hr after resuscitation for measurement of plasma K and Na.
All animal procedures are conducted with the authorization of the Institutional Animal Care and Use Committee at the University of Maryland, School of Medicine. […] Blood samples (0.5 ml) were taken before hemorrhage, before resuscitation and 1 hr after resuscitation for measurement of plasma K and Na. Blood was centrifuged 3500 rpm for 2 min, plasma removed and K and Na was measured by flame photometer. Before and after resuscitation potassium (K) was analyzed by Newman Keul post hoc test after ANOVA.

[2] = system: rats in severe hemorrhagic shock; conditions: for effect on shock-elevated plasma K^+ / Plasma K^+ 0.5 hr after Resuscitation / bradycardia on resuscitation from hemorrhagic shock / time to 50% mortality / time to 100% mortality: 2.5 mM in saline; for effect on shock-elevated plasma K^+: 0.5 hr; for Plasma K^+ 0.5 hr after Resuscitation: mean ± SE, N = 7/group; for survival compared to saline and cytidine controls (Kaplan-Meier): single dose of 2.5 mM in saline, 8 rats/group, p<0.001; for adverse effects on resuscitation from hemorrhagic shock: rat, in vivo
Experimental: Pentobarbital-anesthetized rats were subjected to severe hemorrhagic shock. Five groups of eight rats were resuscitated.
Plasma K^+ was measured from plasma taken before hemorrhage, before resuscitation and 0.5 hrs after resuscitation using a K^+ electrode (Jenco Electronics, Inc., San Diego, Calif.). Survival time between groups was compared by Kaplan-Meier survival Analysis.

Na/K ATPase = Na/K ATPase assay (86Rb uptake into red blood cells);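 as to all read-outs here: washed human red blood cells in K-free Ringer, test agent preincubated 20 min, then 86Rb uptake over 4 h at 37 °C counted as CPM per tube versus water control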; conditions: for relative effectiveness at stimulating Na/K ATPase: 10^-3 Molar (FIG. 8); for stimulation of Na/K ATPase: human red blood cells, dose response (FIG. 3b, FIG. 8); for stimulation of Na/K ATPase in the presence of ouabain: partial inhibition / sub maximal doses of ouabain (FIG. 9)
Experimental: Human red blood cells of any group-type were donated for research by the Blood Bank of the University Of Maryland, School of Medicine. Five ml of red cells are washed 3 times in 40 ml of Potassium free Ringers solution (141 mM NaCl, 1 mM H2NaPO4, 0.5 mM CaCl2, 1 mM MgSO4, 4.5 mM glucose, 10 mM HEPES pH7.4). 50 μl of washed red cells are added to 220 μl of potassium free Ringers solution. 30, 10, 3 or 1 μl of ultra-filtrate, HPLC (high performance liquid chromatography) fraction, or adenosine, inosine, guanosine, deoxyadenosine, deoxyguanosine, caffeine, aminophylline, dipyridamole, NBTI, 6thioinosine, 6thioguanosine, or EHNA (all in buffer) is added to the mixture and incubated for 20 min. 4 μCi of 86RbCl is added and incubated for 4 hrs at 37° C. The mixture is than washed three times with 4° C. Potassium free Ringers solution and the cells counted in a gamma counter (Packard, Cobra II). Na/K ATPase activity is expressed as the CPM (counts per minute) (CPM/tube*4 hrs). The effects of ultra-filtrate or HPLC fractions on ^86Rb uptake into red cells are compared to equal volumes of either water (control) or, in some cases, 0.01 mM Ouabain (maximal inhibition).

[3] = system: rat in endotoxic shock (LPS); test: Endotoxic shock (LPS 10 mg/kg iv) with intravenous inosine infusion; assay type: in vivo
Experimental: Pentobarbital-anesthetized (50 mg/kg) rats (380-420 g) had cannulas placed in their femoral artery and vein. Arterial Blood pressure was monitored via the femoral artery cannula. After 15 minutes of stabilization, the rats were injected with 10 mg/kg of lipopolysaccharide (LPS, Sigma Aldrich, serotype 026:B6) in saline via the femoral vein. At the same time, an infusion of saline or inosine (5 mM) in saline or no infusion was begun (5 ml/hr) via the femoral vein cannula. A 5 mM solution of inosine is […]. Arterial pressure and heart rate were monitored throughout the procedure. Survival time was recorded. Supplemental doses (15 mg/kg) of pentobarbital were given via the femoral vein cannula every hour. Rats surviving beyond 8.5 hr had their cannulas removed and were allowed to recover from pentobarbital anesthesia. These rats lived till 48 hours at which time we terminated the experiment. Inosine was administered at a rate of 1.34 mg/ml at 5 ml/hour for 5 hours which is a total of 33.5 mg for 5 hours. In 400 gram rats that is a total of about 83.75 mg/kg over the 5 hour period; 16.75 mg/hr or 402 mg/day.

[4] = system: murine model of colitis (DSS); conditions: cited from earlier work
[5] = system: septic shock induced by cecal ligation and puncture (CLP); conditions: cited from earlier work
[6] = system: lipopolysaccharide-induced shock; conditions: cited from earlier work
[7] = human blood; cited from earlier work
[8] = water; cited from earlier work

SMILES	effect on shock-elevated plasma K^+ [2]	Plasma K^+ 0.5 hr after Resuscitation [2]	survival compared to saline and cytidine controls (Kaplan-Meier) [2]	relative effectiveness at stimulating Na/K ATPase (Na/K ATPase)	stimulation of Na/K ATPase (Na/K ATPase)	stimulation of Na/K ATPase in the presence of ouabain (Na/K ATPase)	bradycardia on resuscitation from hemorrhagic shock [2]	time to 50% mortality [2]	time to 100% mortality [2]	adverse effects on resuscitation from hemorrhagic shock [2]	other results
Nc1ncnc2c1ncn2[C@@H]1O[C@H](CO)[C@@H](O)[C@H]1O [adenosine]	lowered the shock-elevated plasma K^+	3.10 ± 0.20 mM	survived significantly longer than saline or cytidine controls; also recorded: significantly increased survival; also recorded: survived significantly longer	more effective at stimulating Na/K ATPase than guanosine and inosine	stimulated Na/K ATPase in a dose-dependent manner	this stimulation occurs even in the presence of ouabain	–	–	–	–	plasma K after resuscitation ([1]; 1 hr after resuscitation, 0.5 mM): recovery of plasma K to prehemorrhage levels by 1 hr; survival ([1]; at about 70 minutes after resuscitation, 0.5 mM): 100%; survival ([1]; at about 160 minutes, 0.5 mM): about 25%; survival ([1]; from 70 to 120 minutes, 0.5 mM): 85%; bradycardia ([1]; shocked rats, 0.5 mM infusion (about 3 to 4.5 mg/kg)): caused bradycardia; survival compared to saline alone (Kaplan-Meier) ([1]; single dose 0.5 mM in saline, infusion volume equal to blood lost, p<0.01): significantly prolonged survival
Nc1nc2c(ncn2[C@@H]2O[C@H](CO)[C@@H](O)[C@H]2O)c(=O)[nH]1 [guanosine]	lowered the shock-elevated plasma K^+	3.01 ± 0.15 mM	survived significantly longer than saline or cytidine controls; also recorded: significantly increased survival; also recorded: survived significantly longer	both equally effective	stimulated Na/K ATPase in a dose-dependent manner	overcame partial inhibition by ouabain	did not cause the bradycardia	sooner than with inosine	200 min	without any adverse effects	–
OC[C@H]1O[C@@H](n2cnc3c(O)ncnc32)[C@H](O)[C@@H]1O [inosine]	lowered the shock-elevated plasma K^+	2.93 ± 0.21 mM	survived significantly longer	both equally effective	stimulated Na/K ATPase in a dose-dependent manner	overcame partial inhibition by ouabain	did not cause the bradycardia	about 100 minutes	about 150 minutes	without any adverse effects	survival compared to saline or no-resuscitation groups (Kaplan-Meier) ([3]; continuous infusion 5 ml/hr of 5 mM for 5 hrs): survived significantly longer than the saline or no-resuscitation groups; survival / success in resuscitating rats fully ([3]; iv infusion 5 mM, 5 ml/hr, 5 hours, observed to 48 hours): 100%; survival compared to saline and cytidine controls (Kaplan-Meier) ([2]; listed as Inosine): survived significantly longer than saline or cytidine controls; also recorded: significantly increased survival; mortality ([4]; oral inosine from day one, by day 30): 60%; protection of colon ([4]; oral inosine): protected the colon from DSS induced inflammatory cell infiltration and lipid peroxidation; organ damage ([5]; 100 mg/kg IP x3): significantly reduced; survival ([5]; 100 mg/kg IP x3): significantly improved; mortality ([5]; post-treatment protocol, 100 mg/kg IP x3, at 24 hours): about 20%; mortality ([5]; post-treatment protocol, at 120 hours): about 90%; mortality ([5]; post-treatment protocol, by 48 hours): about 80%; mortality ([5]; pre-treatment protocol, 100 mg/kg IP x3, by 24 hours): 15%; mortality ([5]; pre-treatment protocol, by 48 hours): about 70%; mortality ([5]; pre-treatment protocol, by 120 hours): about 75%; mortality ([6]; single IP 100 mg/kg 30 minutes before LPS 70 mg/kg IP, at 36 hours): 19%; mortality ([6]; single IP 100 mg/kg before LPS, at 60 hours): 37.5%; mortality ([6]; single IP 100 mg/kg before LPS, by 96 hours): 50%; survival compared to untreated mice ([6]; single IP 100 mg/kg before LPS): prolonged survival compared to untreated mice; half life [7]: < 1 s; solubility [8]: highly soluble in water
